Broadly, the pEC50 is −log10 of the EC50, conventionally taken in molar units.

Consider five molecules from patent US20160244435A1, “EXPANDED THERAPEUTIC POTENTIAL IN NITROHETEROARYL ANTIMICROBIALS” (The Regents of the University of California, priority 2013, published 2016).

Molecules are shown by their SMILES. pEC50: −log10 of the molar value. Where two headings read alike, the source gives them in different places.

For assay [1], the system named is Mz-sensitive (MzS) G. lamblia strain 713. In words: Giardia 48 h growth and survival assay (ATP read-out), Mz-sensitive line. In kind it is cell-based, Giardia lamblia. The note with it: Giardia duodenalis; sensitive 713 line (MzS cells).
For assay [2], the system named is G. lamblia GS/M. In words: Murine Giardia infection model. In kind it is in vivo, C57BL/6 mice. The note with it: single oral dose, data not shown.
In assay [3] the test system is Giardia. The settings on record: cited from earlier work.
For assay [4], the system named is Mz-resistant (MzR) G. lamblia 713 line. As to the kind of experiment: microbe, parasite or virus in culture. In kind it is cell-based, Giardia lamblia.
[5] abbreviates: regimen not stated or depending on dosing regimens.

`Cc1ncc([N+](=O)[O-])n1CCO` [Mz, metronidazole]: the pEC50 was 5.70 in assay [1] and 4.30 in assay [4] (Giardia duodenalis). Further, in assay [2], the “lowest single dose that eradicates giardiasis in at least half of infected mice” value was 100 mg/kg. For the same molecule, in assay [3] (single-dose treatment), the efficacy was 20-60%. In assay [3] (three daily 250 mg oral doses for 5-10 days), the “efficacy (cases in which effective)” value is 80-95%. For the same molecule, in assay [4] (713 syngeneic pair), the “residual activity in MzR compared to MzS cells, 100%×(EC50 in MzS/EC50 in MzR)” value is listed as 4%.
Consider `O=C1OCCN1/N=C/c1ccc([N+](=O)[O-])o1` [furazolidone], for which the efficacy in assay [3] (setting [5]) is reported as 80-85%.
As to `CC(=O)Oc1ccccc1C(=O)Nc1ncc([N+](=O)[O-])s1` [nitazoxanide], the efficacy in assay [3] (two daily 500 mg doses for three days) is given as 70-80%.
Regarding `CCN(CC)CCCC(C)Nc1c2ccc(Cl)cc2nc2ccc(OC)cc12` (stereo not shown) [quinacrine], the efficacy entry in assay [3] (setting [5]) was “up to 90%”.
Consider `CCCSc1ccc2nc(NC(=O)OC)[nH]c2c1` [albendazole], for which, in assay [3] (setting [5]), the efficacy is recorded as 25-90%.
